Source: patent US20210379012A1, “ANTIANGIOGENIC CHROMANE DERIVATIVE AND USES THEREOF” (Indiana University Research and Technology Corporation, priority 2018, published 2021)

Legend:
Format in all cases: cell-based
[1] = system: human retinal endothelial cells (HRECs); test: alamarBlue proliferation assay, HRECs; conditions: HREC, 48 hours' incubation
Procedure: (§1) EBM-2 and IMDM growth media were purchased from Lonza (Walkersville, Md., USA). RPMI and DMEM media were purchased from Thermo Scientific (Waltham, Mass., USA). ARPE19 cells were obtained from ATCC (Manassas, Va., USA). HRECs and Attachment Factor were purchased from Cell Systems (Kirkland, Wash., USA) and were used between passages 5 and 8. Endothelial Growth Medium (EGM-2) was prepared by mixing the contents of an EGM-2 “Bullet Kit” (Cat. no. CC-4176) with Endothelial Basal Medium (EBM) (Lonza). The EGM-2 “Bullet Kit” contains hydrocortisone, human fibroblast growth factor (hFGF), VEGF, R3-insulin like growth factor (R3-IGF-1), ascorbic acid, human epidermal growth factor (hEGF), gentamycin and heparin along with 2% fetal bovine serum (FBS). ARPE19 cells were grown in DEM medium containing 10% FBS and 1% penicillin-streptomycin (pen-strep). 92-1 cells were grown in RPMI medium containing 10% FBS and 1% pen-strep. Y79 cells were grown in RB medium (IMDM+10% FBS+55 μM β-mercaptoethanol+10 μg/mL Insulin+1% pen-strep). […]
(§2) The proliferation of cells was monitored by an alamarBlue based fluorescence assay. […] At the end of the incubation, 11.1 μL of alamarBlue reagent was added and 4 hours after, fluorescence readings were taken with excitation and emission wavelengths of 560 nm and 590 nm respectively. Data were analyzed and dose response curves generated using GraphPad Prism software (v. 6.0).

Y79 retinoblastoma cells = test: alamarBlue proliferation assay, Y79; conditions: 48 hours' incubation
Procedure: as §1, §2

[2] = system: 92-1 uveal melanoma cells; test: alamarBlue proliferation assay, 92-1; conditions: 48 hours' incubation
Procedure: as §1, §2

[3] = system: ARPE19 retinal pigment epithelial cells; test: alamarBlue proliferation assay, ARPE19; conditions: Homo sapiens, ARPE-19, 48 hours' incubation
Procedure: as §1, §2

In the case of `COc1ccc(CC2COc3cc(OC)c(OC)c(OC)c3C2)cc1O` (stereo not shown) [compound (1)], the GI50 [1] is reported as 0.00152 µM, the GI50 (Y79 retinoblastoma cells) is reported as 17 µM and the GI50 [2] is reported as 28 µM. For the same compound, the GI50 [3] was > 100 µM.
